Measured values from article PMC5444469, “Involvement of three putative glucosyltransferases from the UGT72 family in flavonol glucoside/rhamnoside biosynthesis in Lotus japonicus seeds” (Journal of Experimental Botany, 2016).
Values belong to the molecule of their own block, whether it stands above or below them.

Columns and labels:
Conditions in all cases: 4 mM UDP-glucose, pH 7.5, 30 °C, 10 mM DTT
UGT72AD1 = system: T1, UGT72AD1; assay: HPLC glucosylation assay; assay type: biochemical, Lotus japonicus
T1 construct: full-length ORF cloned from leaf cDNA; MBP fusion (pMAL-c2x), E. coli Novablue, maltose-resin purified

HPLC glucosylation assay [1] = substrate: O=c1c(O)c(-c2ccc(O)c(O)c2)oc2cc(O)cc(O)c12; assay: HPLC glucosylation assay; assay type: biochemical, Lotus japonicus
Source text: (§1) HPLC glucosylation assay on UGT72Z2 | UGT72Z2 ...

HPLC glucosylation assay [2] = substrate: O=c1c(O)c(-c2ccc(O)cc2)oc2cc(O)cc(O)c12; assay: HPLC glucosylation assay; assay type: biochemical, Lotus japonicus
Source text: as §1

purified protein = substrate: O=c1c(O)c(-c2cc(O)c(O)c(O)c2)oc2cc(O)cc(O)c12; assay: purified protein

Molecule: O=c1c(O)c(-c2ccc(O)c(O)c2)oc2cc(O)cc(O)c12 [quercetin]
Km (UGT72AD1): 310 µM

B1: UGT72Z2 (Lotus japonicus) (protein)
chain: MAKTIHIAAVSIPAFSHQASIIEFCKKLLHLHHHYHVTCIFPTIDAPVAATLKLLQSLPSTIDFKFLPPVNKQDLPQDVSPAVQIQLAVSQSMPSFRDTMRSLHSTTPHLTALIADPFANEALEIGKEFNLLSYIYFPPSAMTLSLFLHLPKLHEEVSCEYRDLTEPIQIPGCIPIQGQDLPEHFQDRSSLAYDLILKRCKRFSLADGFLVNSFLELEEGTVKALQEQNRGNRGENRGNRGKNRGNRDSPVFLVGPVIQTGPSSEPKGSESEYCVRWLENQIPKSVLYVSFGSGGTLSQEQMNELAFGLELSGQKFLWVVRAPSDSANAAYLGVGNEDPLKFLPSGFIERTKGQGLVIPSWAPQTQILSHSSIGGFLTHCGWNSVLESIVLGVPMITWPLFAEQRMNAVLLTDGVKVALRPKFDENGIVKREEIAVVVKGLMQGEEGNGIHHRIEVLKEAAADALKEDGSSTRALSQFGNQIENFLALK
notes: full-length ORF cloned from leaf cDNA; MBP fusion (pMAL-c2x), E. coli Novablue, maltose-resin purified
Km (HPLC glucosylation assay [1]): 68 µM | Km (HPLC glucosylation assay [2]): 40 µM | Km (purified protein): 46 µM

Results, then the molecule that gave them:

Km (UGT72AD1): 330 µM
Molecule: O=c1c(O)c(-c2ccc(O)cc2)oc2cc(O)cc(O)c12 [kaempferol]

Km (UGT72AD1): 390 µM
Molecule: O=c1c(O)c(-c2cc(O)c(O)c(O)c2)oc2cc(O)cc(O)c12 [myricetin]
